Results from patent publication US4882313A, “Carboxamide derivatives of glycopeptides” (SmithKline Beckman Corporation, priority 1987, dated 1989).

Experiments:
Staphylococcus aureus = assay: standard microtiter assay, minimum inhibitory concentration; assay type: cell-based; settings: for minimum inhibitory concentration of antibiotic, Test Organism 1: Test Organism 1, strain of Staphylococcus aureus; for minimum inhibitory concentration of antibiotic, Test Organism 2: Test Organism 2, strain of Staphylococcus aureus; for minimum inhibitory concentration of antibiotic, Test Organism 3: Test Organism 3, strain of Staphylococcus aureus; for minimum inhibitory concentration of antibiotic, Test Organism 4: Test Organism 4, strain of Staphylococcus aureus; for minimum inhibitory concentration of antibiotic, Test Organism 5: Test Organism 5, strain of Staphylococcus aureus
Source text: (§1) Representative results of standard microtiter assays are reported in Table 1 which follows, as the minimum inhibitory concentration of antibiotic (mg/ml). In Table 1, test organisms 1-5 were different strains of Staphylococcus aureus; 6, 8, 11, 13 and 14 were different strains of Staphylococcus epidermidis; 7 was a Staphylococcus haemolyticus; 9 and 10 were different strains of Streptococcus faecalis; and 12 was a Staphylococcus saprophyticus.

[1] = system: Staphylococcus haemolyticus; assay: as above; assay type: cell-based; settings: Test Organism 7, Staphylococcus haemolyticus
Source text: as §1

[2] = system: Staphylococcus saprophyticus; assay: as above; assay type: cell-based; settings: Test Organism 12, Staphylococcus saprophyticus
Source text: as §1

Streptococcus faecalis = assay: as above; assay type: cell-based; settings: for minimum inhibitory concentration of antibiotic, Test Organism 9: Test Organism 9, strain of Streptococcus faecalis; for minimum inhibitory concentration of antibiotic, Test Organism 10: Test Organism 10, strain of Streptococcus faecalis
Source text: as §1

[3] = system: Staphylococcus epidermidis; assay: as above; assay type: cell-based; set-up: minimum inhibitory concentration of antibiotic, Test Organism 8: unit not given here; settings: for minimum inhibitory concentration of antibiotic, Test Organism 6: Test Organism 6, strain of Staphylococcus epidermidis; for minimum inhibitory concentration of antibiotic, Test Organism 8: Test Organism 8, strain of Staphylococcus epidermidis; for minimum inhibitory concentration of antibiotic, Test Organism 11: Test Organism 11, strain of Staphylococcus epidermidis; for minimum inhibitory concentration of antibiotic, Test Organism 13: Test Organism 13, strain of Staphylococcus epidermidis; for minimum inhibitory concentration of antibiotic, Test Organism 14: Test Organism 14, strain of Staphylococcus epidermidis
Source text: as §1

[4] = pI (analytical data, Table 2); assay type: physicochemical
Source text: Using substantially the procedures of both Examples 1 and 2, the compounds of Examples 3-15 were obtained by using the appropriate glycopeptide and amine starting materials.

Molecule | minimum inhibitory concentration of antibiotic, Test Organism 1 (Staphylococcus aureus) [µg/mL] | minimum inhibitory concentration of antibiotic, Test Organism 2 (Staphylococcus aureus) [µg/mL] | minimum inhibitory concentration of antibiotic, Test Organism 3 (Staphylococcus aureus) [µg/mL] | minimum inhibitory concentration of antibiotic, Test Organism 4 (Staphylococcus aureus) [µg/mL] | minimum inhibitory concentration of antibiotic, Test Organism 5 (Staphylococcus aureus) [µg/mL] | minimum inhibitory concentration of antibiotic, Test Organism 7 [1] [µg/mL] | minimum inhibitory concentration of antibiotic, Test Organism 12 [2] [µg/mL] | minimum inhibitory concentration of antibiotic, Test Organism 9 (Streptococcus faecalis) [µg/mL] | minimum inhibitory concentration of antibiotic, Test Organism 10 (Streptococcus faecalis) [µg/mL] | minimum inhibitory concentration of antibiotic, Test Organism 6 [3] [µg/mL] | minimum inhibitory concentration of antibiotic, Test Organism 8 [3] | minimum inhibitory concentration of antibiotic, Test Organism 11 [3] [µg/mL] | minimum inhibitory concentration of antibiotic, Test Organism 13 [3] [µg/mL] | minimum inhibitory concentration of antibiotic, Test Organism 14 [3] [µg/mL] | pI [4]
CNC1C(=O)NC2C(=O)NC(C(=O)NC3C(=O)NC4C(=O)NC(C(=O)NC(C(N)=O)c5cc(O)cc(OC6OC(CO)C(O)C(O)C6O)c5-c5cc4ccc5O)C(O)c4ccc(c(Cl)c4)Oc4cc3cc(c4OC3OC(C(N)=O)C(O)C(O)C3NC(=O)CCCCCCCCC(C)C)Oc3ccc(cc3)C2O)c2cc(cc(O)c2Cl)Oc2cc1ccc2O (stereo not drawn) [Compound 2q, AAJ-271 C1 diamide] | 800 | 1600 | 800 | > 1600 | 1600 | 3100 | 12500 | 200 | 200 | 12500 | 6.3 | 12500 | 3100 | 3100 | 7.3
CNC1C(=O)NC2C(=O)NC(C(=O)NC3C(=O)NC4C(=O)NC(C(=O)NC(C(=O)O)c5cc(O)cc(O)c5-c5cc4ccc5O)C(O)c4cc(Cl)c(c(Cl)c4)Oc4cc3cc(c4O)Oc3ccc(cc3Cl)C2O)c2cc(cc(O)c2Cl)Oc2cc1ccc2O (stereo not drawn) [Compound 2a, Ardacin aglycone, reference compound] | 800 | 800 | 400 | 400 | 800 | 6300 | 1600 | 800 | 800 | 800 | 3.1 | 1600 | 1800 | 800 | –
CNC1C(=O)NC2C(=O)NC(C(=O)NC3C(=O)NC4C(=O)NC(C(=O)NC(C(=O)O)c5cc(O)cc(OC6OC(CO)C(O)C(O)C6O)c5-c5cc4ccc5O)C(O)c4ccc(c(Cl)c4)Oc4cc3cc(c4OC3OC(C(=O)O)C(O)C(O)C3NC(=O)CCCCCCCCC(C)C)Oc3ccc(cc3)C2O)c2cc(cc(O)c2Cl)Oc2cc1ccc2O (stereo not drawn) [Compound 2p, AAJ-271 C1, reference compound] | 400 | 400 | 200 | 800 | 400 | 6300 | 1600 | 6300 | 6300 | 6300 | 25 | 25000 | 6300 | 6300 | –
CNC1C(=O)NC2C(=O)NC(C(=O)NC3C(=O)NC4C(=O)NC(C(=O)NC(C(=O)O)c5cc(O)cc(OC6OC(CO)C(O)C(O)C6O)c5-c5cc4ccc5O)C(O)c4cc(Cl)c(c(Cl)c4)Oc4cc3cc(c4O)Oc3ccc(cc3Cl)C2O)c2cc(cc(O)c2Cl)Oc2cc1ccc2O (stereo not drawn) [Compound 2b, Ardacin mannosylaglycone, reference compound] | 1600 | 1600 | 800 | > 1600 | 1600 | 25000 | 3100 | 800 | 800 | 12500 | 6.3 | 25000 | 6300 | – | –
AAJ-271 C2 [Compound 2r, reference compound] | 800 | 800 | 200 | 1600 | 800 | 12500 | 1600 | 200 | 200 | 25000 | 12.5 | 25000 | 6300 | 3100 | –
CNC1C(=O)NC2C(=O)NC(C(=O)NC3C(=O)NC4C(=O)NC(C(=O)NC(C(=O)NCCN)c5cc(O)cc(O)c5-c5cc4ccc5O)C(O)c4cc(Cl)c(c(Cl)c4)Oc4cc3cc(c4O)Oc3ccc(cc3Cl)C2O)c2cc(cc(O)c2Cl)Oc2cc1ccc2O (stereo not drawn) [Compound 2e, Ardacin aglycone-(2-aminoethyl amide)] | 50 | 50 | 50 | 200 | 50 | 50 | 50 | 50 | 100 | 100 | 0.1 | 100 | 50 | 50 | –
Ardacin A [Compound 2i, reference compound] | 6300 | 3100 | 800 | > 6300 | 3100 | 25000 | 12500 | 800 | 800 | 50000 | 25 | 25000 | 6300 | 5100 | –
CN[C@H](CC(C)C)C(=O)N[C@H]1C(=O)N[C@@H](CC(N)=O)C(=O)N[C@H]2C(=O)N[C@H]3C(=O)N[C@H](C(=O)N[C@H](C(=O)O)c4cc(O)cc(O)c4-c4cc3ccc4O)[C@H](O)c3ccc(c(Cl)c3)Oc3cc2cc(c3O[C@@H]2O[C@H](CO)[C@@H](O)[C@H](O)[C@H]2O[C@H]2C[C@](C)(N)[C@H](O)[C@H](C)O2)Oc2ccc(cc2Cl)[C@H]1O [Vancomycin, reference compound] | 3100 | 1600 | 1600 | > 3100 | 1600 | 3100 | 3100 | 3100 | 3100 | 3100 | – | 3100 | 3100 | 3100 | –
